Source: article PMC7432838, “A Curcumin Analog Exhibits Multiple Biologic Effects on the Pathogenesis of Alzheimer’s Disease and Improves Behavior, Inflammation, and β-Amyloid Accumulation in a Mouse Model” (International Journal of Molecular Sciences, 2020)

What was measured:
[1] = Water solubility (preformulation, preliminary studies); assay type: physicochemical; conditions: unformulated
Method: The active pharmaceutical ingredients of TML-6 were synthesized and physico-chemical properties were characterized by SinoPharm Pharmaceutical Company (SPT), Tainan, Taiwan. Preformulation studies on the solubility of TML-6 were conducted by Value Pharmaceutical Services (VPS) Company, Jiansu, China. All the data in this study were conducted using unformulated TML-6. Formulation to optimize the solubility and permeability of TML-6 is under development for toxicological studies.

[2] = test system: human neuroglioma H4-APP751 stable cell line; design: method as in PMID 20622013; conditions: 15 and 20 μM, no cytotoxicity; cited from earlier work
[3] = Pharmacokinetic study after oral administration in SD rats; assay type: in vivo, rat; conditions: SD rats, oral 150 mg/kg
Method: In order to evaluate the bioavailability of curcumin and its analog TML-6, pharmacokinetic studies were commissioned and conducted by the Development Center for Biotechnology (DCB, Taipei, Taiwan). The kinetics of curcumin and TML-6 in blood were collected at 0.25, 0.5, 1, 2, 4, 6, 8 and 10 h after oral administration of curcumin and TML-6 at the dose of 150 mg/kg in male Sprague–Dawley Rats.

[4] = test system: Aβ42 production in N2a/APPswe stable cells; assay: Aβ42 ELISA of culture medium; assay type: cell-based, mouse; conditions: different doses up to 20 µg/mL, 24 h
Method: (§1) Extracellular levels of soluble Aβ40 and Aβ42 were determined by LEGEND MAX™ β-Amyloid x-40 and X-42 ELISA Kit (Biolegend, San Diego, CA, USA). Overexpression of the APP Swedish mutation (APPswe) in the N2a neuronblastoma cell line was called the N2a/APPswe cell line. N2a/APPswe stable cells were seeded at 8 × 10^5 cells in 6 cm dishes. After overnight incubation, the cells were treated with curcumin and TML-6 for 24 h. […] The culture supernatant was collected and centrifuged at 1500× g at 4 °C for 5 min to remove cells. The culture supernatants from various treatments were conducted to examine the Aβ levels according to the manufacturer’s instructions. The samples for the detection of soluble Aβ levels were diluted in the supernatant at a 1:10 dilution for this experiment. Levels of soluble Aβ were detected by measuring the OD at 620 nm (Molecular Devices, San Jose, CA, USA). The calculation of Aβ levels was based on the standard curves of Aβ40 and Aβ42, respectively.

[5] = test system: phospho-NF-κB in Huh-7 cells; assay: Western blotting of phosphorylated NF-κB; assay type: cell-based, human; conditions: 10 µg/mL, 24 h, vs medium control
Method: (§2) After cells were seeded and treated with curcumin and TML-6 for 24 h, cells were washed with ice-cold PBS (Phosphate Buffered Saline) and lysed with 100 μL of RIPA cell lysis buffer (Pierce Biotechnology, Rockford, IL, USA) supplemented with protease and phosphatase inhibitors (Roche Diagnostics, Mannheim, Germany). Cell lysates were further cleaned by centrifugation at 14,000 rpm at 4 °C for 15 min. Protein concentration was determined using a Bradford assay (Bio-Rad, Hercules, CA, USA). For Western blot analysis, 20 μg of each sample was prepared for SDS-PAGE (SDS Poly-acrylamide-gel-electrophoresis) and denatured at 95 ℃ for 10 min. The samples prepared from total lysates were loaded and separated by SDS-PAGE (8% or 10%), and then transferred to PVDF membranes (pore size 0.45 μm; PerkinElmer, Waltham, MA, USA) by semi-dry transfer cell (Bio-Rad). After blocking with 5% skim milk in PBS-T (0.1% Tween-20), the membranes were hybridized with primary antibodies at 1/1000 dilution at 4 °C overnight. On the next day, membranes were washed with PBS-T followed by incubation with HRP-conjugated anti-mouse or anti-rabbit secondary antibody (DAKO, Santa Clara, CA, USA) at 1/5000 dilution at room temperature for 1 h as appropriate. […]

[6] = test system: Aβ40 production in N2a/APPswe stable cells; assay: Aβ40 ELISA of culture medium; assay type: cell-based, mouse; conditions: different doses up to 20 µg/mL, 24 h
Method: as §1

[7] = test system: Iba-1 (microglial activation marker) in 3xTg AD mouse hippocampus; assay: Immunofluorescence staining of Iba-1 in brain of 3xTg AD mice; assay type: in vivo; conditions: 150 mg/kg/day in diet for four months
Method: (§3) The triplex transgenic mouse model (3xTg-AD, APP Swedish, MAPT P301L, and PSEN1 M146V) was adopted as the AD model and bred at the laboratory animal center of National Cheng Kung University (NCKU), Tainan, Taiwan. The mice were housed in a room maintained on a 12 h light–dark cycle and fed ad libitum. Six-month old 3xTg-AD mice were used for animal experiments. Experimental procedures for handling the mice were in accordance with the guidelines of the Institutional Animal Care and Use Committee (IACUC) of NCKU. These mice develop plaques and tangles pathology. Aβ deposition is progressive, and deposition appears as early as nine months for triplex-Tg mice. […] The quantity of the diet consumed by the mice was determined daily. The concentration of curcumin and TML-6 in the diet was determined to be around 1.20 mg/g of diet after assaying by HPLC by the Development Center for the Biotechnology (DCB), Taipei, Taiwan.
(§4) Mice were anesthetized using pentobarbital (60 mg/kg, intravenous) and then transcardial perfusion was performed with 0.01 M PBS (pH 7.4). […] Images were captured by the TissureFAXS microscopy system and positive signals were quantified by TissueQuest software module (TissueGnostic, Vienne, Austria).

3xTg AD transgenic mice = assay: Morris water maze test in 3xTg AD transgenic mice; assay type: in vivo, mouse; conditions: 150 mg/kg/day in diet for four months; six-month-old 3xTg AD mice; vs vehicle control
Method: The triplex transgenic mouse model (3xTg-AD, APP Swedish, MAPT P301L, and PSEN1 M146V) was adopted as the AD model and bred at the laboratory animal center of National Cheng Kung University (NCKU), Tainan, Taiwan. The mice were housed in a room maintained on a 12 h light–dark cycle and fed ad libitum. Six-month old 3xTg-AD mice were used for animal experiments. Experimental procedures for handling the mice were in accordance with the guidelines of the Institutional Animal Care and Use Committee (IACUC) of NCKU. These mice develop plaques and tangles pathology. Aβ deposition is progressive, and deposition appears as early as nine months for triplex-Tg mice. The AD transgenic mice were fed with the control diet (Laboratory Rodent Diet 5001, LabDiet, St. Louis, MO, USA), the control diet plus traditional curcumin (150 mg/kg), or the control diet plus TML-6 (150 mg/kg) for four months. Diets were stored at 4 °C and were added to mouse cage twice a week. The quantity of the diet consumed by the mice was determined daily. The concentration of curcumin and TML-6 in the diet was determined to be around 1.20 mg/g of diet after assaying by HPLC by the Development Center for the Biotechnology (DCB), Taipei, Taiwan.
For assessing spatial learning and memory, the Morris water maze was used as we described before. […] The time taken to reach the platform was recorded as escape latency.

[8] = test system: phospho-mTOR in Huh-7 cells; assay: Western blotting of phospho-mTOR; assay type: cell-based, human; conditions: Huh-7, 24 h
Method: After cells were seeded and treated with curcumin and TML-6 for 24 h, cells were washed with ice-cold PBS (Phosphate Buffered Saline) and lysed with 100 μL of RIPA cell lysis buffer (Pierce Biotechnology, Rockford, IL, USA) supplemented with protease and phosphatase inhibitors (Roche Diagnostics, Mannheim, Germany). Cell lysates were further cleaned by centrifugation at 14,000 rpm at 4 °C for 15 min. Protein concentration was determined using a Bradford assay (Bio-Rad, Hercules, CA, USA). For Western blot analysis, 20 μg of each sample was prepared for SDS-PAGE (SDS Poly-acrylamide-gel-electrophoresis) and denatured at 95 ℃ for 10 min. The samples prepared from total lysates were loaded and separated by SDS-PAGE (8% or 10%), and then transferred to PVDF membranes (pore size 0.45 μm; PerkinElmer, Waltham, MA, USA) by semi-dry transfer cell (Bio-Rad). After blocking with 5% skim milk in PBS-T (0.1% Tween-20), the membranes were hybridized with primary antibodies at 1/1000 dilution at 4 °C overnight. On the next day, membranes were washed with PBS-T followed by incubation with HRP-conjugated anti-mouse or anti-rabbit secondary antibody (DAKO, Santa Clara, CA, USA) at 1/5000 dilution at room temperature for 1 h as appropriate. Finally, the images were captured by Amersham Imager 600 (GE Healthcare Life Sciences, Marlborough, MA, USA) after being developed using the chemiluminescent HRP substrate (Millipore, Bedford, MA, USA). The primary antibodies used in this study were anti-APP, anti-NF-κB (Cell Signaling Technology, Danvers, MA, USA), anti-Apo E, anti-p-mTOR (Abcam, Cambridge, MA, USA).

[9] = test system: APP (amyloid precursor protein) in Huh-7 cells; assay: Western blotting of APP protein expression; assay type: cell-based, human; conditions: 5 µg/mL, 24 h, vs medium control
Method: as §2

Huh-7 cells = assay: Cytotoxicity assay by Cell Counting Kit-8 (CCK-8); assay type: cell-based, human; conditions: Huh-7, 24 h
Method: The cytotoxicity assay was performed using the Cell Counting Kit-8 (CCK-8, Sigma). We dissolved 0.0524 g of TML-6 (molecular weight is 523.62 g/mol) in 10 mL DMSO to obtain TML-6 stock at 10 mM for cell line study. […] Briefly, Huh-7 cells were seeded overnight in 96-well plates at 5000 cells/well and then subjected to traditional curcumin or TML-6 treatment for 24 h. At each time point, a CCK-8 solution (0.25 mg/mL) was added to the medium in each well for an additional 4 h incubation, and absorbance was measured at 570 nm using an ELISA reader.

[10] = test system: rat neuroblastoma B104-APP751 stable cell line; design: method as in PMID 20622013; conditions: 15 and 20 μM, no cytotoxicity; cited from earlier work
[11] = test system: Aβ in 3xTg AD mouse brain; assay: Immunofluorescence staining of Aβ in brain of 3xTg AD mice; assay type: in vivo; conditions: 150 mg/kg/day in diet for four months
Method: as §3, §4

N2a/APPswe stable cells = assay: Cell viability/morphology by micrographs during Aβ ELISA treatment; assay type: cell-based, mouse; conditions: 24 h
Method: as §1

Question: For curcumin [reference compound], which water solubility [1] is on record?
Answer: less than 0.1 mg/mL

Question: What about the “Aβ40 and Aβ42 levels (in words)” value [2] of the same substance?
Answer: significantly decreased

Question: And the “blood concentrations at each time point” value [3]?
Answer: not detectable

Question: What about the “Aβ42 level vs control (in words)” value [4] of the same substance?
Answer: increased to levels higher than those of the control

Question: What about the “decrease of phosphorylated NF-κB level” value [5] of the same substance?
Answer: 35%

Question: What about the “Aβ40 level vs control (in words)” value [6] of the same substance?
Answer: increased to levels higher than those of the control

Question: What about the “Iba-1 expression vs vehicle (in words)” value [7] of the same substance?
Answer: no significant change

Question: And the “learning behavior in Morris water maze (in words)” value (3xTg AD transgenic mice)?
Answer: no significant difference

Question: What about the “phospho-mTOR suppression (Western blot, in words)” value [8] of the same substance?
Answer: suppressed in a dose-dependent manner

Question: What about the “reduction of APP protein expression level” value [9] of the same substance?
Answer: 30%

Question: And the IC50 (Huh-7 cells)?
Answer: 60 µM

Question: What about the “cytotoxicity (CCK-8)” value (Huh-7 cells; up to highest concentration of 20 µg/mL) of the same substance?
Answer: no obvious cytotoxicity

Question: What about the “Aβ40 and Aβ42 levels (in words)” value [10] of the same substance?
Answer: significantly decreased

Question: What about the “Aβ expression in brain vs vehicle (in words)” value [11] of the same substance?
Answer: trend of reduction but without significant differences

Question: And the “highest dose, at which cytotoxicity was seen (micrographs)” value (N2a/APPswe stable cells)?
Answer: 20 µg/mL
